Results published in patent US20050208496A1, “Methods of testing for bronchial asthma or chronic obstructive pulmonary disease” (Genox Research, Inc., priority 2002, published 2005).

Test system: respiratory epithelial cells
Conditions: lot 2 Day 7 AI

Substance: IL-13: human IL-13 (Peprotech, Inc.) added to the medium at 50 ng/mL to stimulate respiratory epithelial cells
- AI770116 (70124_at) expression change: −5.1
- AI798733 (64163_at) expression change: −3.3
- AI829641 (84270_at) expression change: −39.5
- AI917602 (49985_at) expression change: −4.1
- AI923984 33546_at expression change: −4.4
- AI948584 48086_at expression change: −13.1
- AI971023 48539_at expression change: −5.3
- AI984780 (52384_s_at) expression change: −4
- AL040936 (45684_at) expression change: −4.5
- AQP5 32909_at expression change: −4.2
- ARHGEF4 36524_at expression change: −6.6
- ARHV (82231_at) expression change: −4
- AW022213 (79520_at) expression change: −5.4
- AW025596 52634_at expression change: −9
- AW025596 52637_g_at expression change: −20.6
- B4GALT5 56373_at expression change: −2.5
- BPGM (51261_at) expression change: −2.4
- CBLB 514_at expression change: −3.2
- CBLB 35632_at expression change: −2.1
- COL12A1 (44730_at) expression change: −6.8
- CRABP-II 1057_at expression change: −12.7
- CRABP-II 41783_at expression change: −11.3
- Clorf28 50075_at expression change: −5.7
- DHCR24 (74557_s_at) expression change: −6.8
- DKFZp434K1210 44682_at expression change: −2.4
- DREV1 (63813_at) expression change: −2.1
- DSC3 (79615_at) expression change: −2.4
- DSC3a, b 47119_at expression change: −2.7
- DSC3a, b 79615_at expression change: −2.4
- EIF4EBP1 (54152_at) expression change: −2.7
- EVPK 39569_at expression change: −2.7
- FKBP5 (46271_at) expression change: −21.2
- FLJ10298 (62490_f_at) expression change: −5.4
- FLJ10718 52072_at expression change: −8.7
- FLJ12541 43546_at expression change: −7.4
- FLJ20048 (49196_at) expression change: −2
- FLJ20373 54030_at expression change: −1.7
- FLJ20500 43853_at expression change: −2.4
- FLJ23309 45563_f_at expression change: −2.4
- FLJ23516 47534_at expression change: −3.2
- GABRP 40339_at expression change: −28
- GAS41 (64121_at) expression change: −2
- GJA1 32531_at expression change: −5.5
- GK (61873_at) expression change: −2.1
- GPD2 42720_at expression change: −2.8
- GSTA3 58023 at expression change: −9.1
- HEY1 44783_s_at expression change: −9.2
- HIN-1 (46200_at) expression change: −38.7
- HSPC195 44705_at expression change: −5.1
- ID1 36619_r_at expression change: −2.5
- IL20RA 42969_at expression change: −2.9
- IVL 36355_at expression change: −10.6
- K1IAA1102 (64345_s_at) expression change: −4.9
- KCNMA1 (47575_g_at) expression change: −7
- KCNMA1 (53796_at) expression change: −6.1
- KIAA0878 (48793_at) expression change: −2
- KIAA1376 (62972_at) expression change: −3.9
- KIAA1376 (64047_at) expression change: −4.2
- KIAA1547 58531_g_at expression change: −2.6
- KLF7 (42769_at) expression change: −4.7
- KRT6B (62998_at) expression change: −5.5
- LCE 45605_at expression change: −2.6
- LMO4 1452_at expression change: −3.9
- LOC51297 (49616_at) expression change: −24.3
- LOC51297 (55440_at) expression change: −33.7
- LOC51297 (55442_g_at) expression change: −33.7
- LOC51316 (63342_at) expression change: −5
- LOC55893 (64071_at) expression change: −2.6
- LOC129642 (42065_at) expression change: −4.9
- LOC129642 (58288_at) expression change: −4.5
- LOC131177 (43849_s_at) expression change: −13.3
- LOC131177 (45394_s_at) expression change: −7.1
- MGC12536 46924_at expression change: −3.1
- MGC14128 55924_at expression change: −4.1
- MGC14128 (51669_r_at) expression change: −5
- MGC14597 (46030_at) expression change: −5.4
- MGC16207 43412_s_at expression change: −2.8
- MGC16207 (65876_at) expression change: −3.4
- N52554 47432_at expression change: −1.7
- N71183 52473_at expression change: −3
- PR01489 57777_at expression change: −4.5
- PSCA (63958_at) expression change: −9.8
- RGC32 (57044_s_at) expression change: −2.4
- RIN1 1778_g_at expression change: −7.5
- SCNN1B 39682_at expression change: −15
- SCYB14 (65823_at) expression change: −2.5
- SEMA4B (46709_at) expression change: −2.5
- SERPINA3 (75248_at) expression change: −46.4
- SLC11A3 (45826_at) expression change: −3.8
- SLC34A2 (48048_at) expression change: −4.3
- SPON2 52576_s_at expression change: −5.8
- SPRR1B 37160_at expression change: −2.8
- STEAP 40297_at expression change: −3.7
- T52027 (63150_at) expression change: −3.5
- TGFBI (68339_at) expression change: −4.9
- TNFAIP2 (74633_at) expression change: −4.2
- TNNT1 36113_s_at expression change: −12.2
- TNRC3 41246_at expression change: −5
- TPM1 36790_at expression change: −4.8
- TPM1 36791_g_at expression change: −6
- TPM1 36792_at expression change: −6.3
- UCP2 37591_at expression change: −45.5
- UGB 39220_at expression change: −62.8
- VEGFC 1934_s_at expression change: −4.3
- VIM 34091_s_at expression change: −11.6
- W55956 46700_at expression change: −2.7
- W72331 49486 at expression change: −11.4
